pEC50: −log10 of the molar value.
What was measured:
Plasmodium falciparum [1] = experiment: NOVARTIS: Inhibition of Plasmodium falciparum 3D7 (drug-susceptible) proliferation in erythrocyte-based infection assay; assay type: functional, organism-based; conditions: Plasmodium falciparum, 3D7
Plasmodium falciparum [2] = experiment: NOVARTIS: Inhibition of Plasmodium falciparum W2 (drug-resistant) proliferation in erythrocyte-based infection assay; assay type: functional, organism-based; conditions: Plasmodium falciparum, W2; read-out: EC50
[3] = NOVARTIS: Cytotoxicity against human hepatocellular carcinoma cell line (Huh7); assay type: toxicity, cell-based, Huh-7; conditions: Huh7 cells (hepatocellular carcinoma cell line)

## C=CC1(O)CN2CCC1CC2[C@@H](O)c1ccnc2ccc(OC)cc12 (stereo not given in full)
Plasmodium falciparum [1]
  pEC50: 6.98
Plasmodium falciparum [2]
  pEC50: 6.58
[3]
  CC50: > 10000 nM

## Cc1nc2ccc(Br)cc2c(O)c1CC(C)C
Plasmodium falciparum [1]
  pEC50: 5.56
Plasmodium falciparum [2]
  pEC50: 5.60
[3]
  CC50: > 100000 nM

## COc1ccc2nc(NC(N)=NC(=O)Nc3ccccc3)nc(C)c2c1
Plasmodium falciparum [1]
  pEC50: 6.16
Plasmodium falciparum [2]
  pEC50: 6.05
[3]
  CC50: 34800 nM

## CCOC(=O)c1c(C)n(-c2ccccc2)c2ccc(O)cc12
Plasmodium falciparum [1]
  pEC50: 5.77
Plasmodium falciparum [2]
  pEC50: 5.58
[3]
  CC50: > 100000 nM

## CCCN(CCC)CCCNc1ccc(C(=O)Nc2ccc(C)c(F)c2)cc1[N+](=O)[O-]
Plasmodium falciparum [1]
  pEC50: 6.83
Plasmodium falciparum [2]
  pEC50: 6.57
[3]
  CC50: 10600 nM

## COc1ccc(C(=O)Nc2nonc2-c2ccc(OC)c(OC)c2)cc1Cl
Plasmodium falciparum [1]
  pEC50: 5.75
Plasmodium falciparum [2]
  pEC50: 5.60
[3]
  CC50: > 100000 nM

## CSc1nc(N)c2c3c(sc2n1)CCCC3
Plasmodium falciparum [1]
  pEC50: < 5.90
Plasmodium falciparum [2]
  pEC50: < 6.60
[3]
  CC50: > 10000 nM

## O=C(CN1CCN(S(=O)(=O)c2cccc([N+](=O)[O-])c2)CC1)Nc1ccc(OCc2ccccc2)cc1
Plasmodium falciparum [1]
  pEC50: 5.41
Plasmodium falciparum [2]
  pEC50: 5.58
[3]
  CC50: > 100000 nM

## O=C(C[n+]1cc(-c2ccc(Cl)cc2)n2c1CCC2)c1ccc(C2CCCCC2)cc1
Plasmodium falciparum [1]
  pEC50: 5.88
Plasmodium falciparum [2]
  pEC50: 6.03
[3]
  CC50: 35500 nM

## CCN(CC)CCCC(C)NCc1ccc(OC)c(OCc2ccccc2)c1 (stereo not given)
Plasmodium falciparum [1]
  pEC50: < 6.10
Plasmodium falciparum [2]
  pEC50: 6.58
[3]
  CC50: > 10000 nM

## O=C(C1CC1)N1CCc2cc(Br)cc(S(=O)(=O)N3CCCCC3)c21
Plasmodium falciparum [1]
  pEC50: 5.09
Plasmodium falciparum [2]
  pEC50: 5.58
[3]
  CC50: > 100000 nM

## Cc1c(C(=O)N2CCC(C)CC2)sc2ncn(CC(=O)N3CCN(c4ccccn4)CC3)c(=O)c12
Plasmodium falciparum [1]
  pEC50: < 5.90
Plasmodium falciparum [2]
  pEC50: 6.57
[3]
  CC50: > 10000 nM

## O=C(O)CSc1ccc(C(=O)NC2CCCCNC2=O)cn1 (stereo not given)
Plasmodium falciparum [1]
  pEC50: < 5.83
Plasmodium falciparum [2]
  pEC50: 6.58
[3]
  CC50: > 10000 nM

## COc1ccc(C(=O)NCCc2ccc(C)cc2)cc1OC1CCN(C(C)=O)CC1
Plasmodium falciparum [1]
  pEC50: < 5.04
Plasmodium falciparum [2]
  pEC50: 5.60
[3]
  CC50: > 100000 nM

## Cc1ccc(-c2nnc(NCc3ccccc3)c3ccccc23)cc1S(=O)(=O)NCC1CCCO1 (stereo not given)
Plasmodium falciparum [1]
  pEC50: 5.73
Plasmodium falciparum [2]
  pEC50: 5.59
[3]
  CC50: > 100000 nM

## CCOc1ccc2nc(C)cc(Nc3ccc(C)c(Cl)c3)c2c1
Plasmodium falciparum [1]
  pEC50: 6.62
Plasmodium falciparum [2]
  pEC50: 6.46
[3]
  CC50: 13600 nM

## CCCCCCCCCC(=O)N1CCN(C(CC)c2nc3ccccc3c(=O)n2C)CC1 (stereo not given)
Plasmodium falciparum [1]
  pEC50: 6.55
Plasmodium falciparum [2]
  pEC50: 6.57
[3]
  CC50: > 10000 nM

## Clc1ccccc1CN1CCc2nc(N3CCCCC3)sc2C1
Plasmodium falciparum [1]
  pEC50: 6.23
Plasmodium falciparum [2]
  pEC50: 5.58
[3]
  CC50: > 100000 nM

## C=CCN1C(=O)/C(=C\c2ccccc2)C(C(=O)OC)=C1C
Plasmodium falciparum [1]
  pEC50: 6.23
Plasmodium falciparum [2]
  pEC50: 6.58
[3]
  CC50: > 10000 nM

## COc1ccc(C(=O)N2c3cc(C)ccc3C(Nc3ccc(C)cc3)CC2C)cc1 (stereo not given)
Plasmodium falciparum [1]
  pEC50: < 4.90
Plasmodium falciparum [2]
  pEC50: 5.58
[3]
  CC50: > 100000 nM

## COc1ccc(C2Nc3ccc(C(C)=O)cc3C3C=CCC32)cc1[N+](=O)[O-] (stereo not given)
Plasmodium falciparum [1]
  pEC50: 5.67
Plasmodium falciparum [2]
  pEC50: 5.59
[3]
  CC50: > 100000 nM

## CCCCOc1ccc(C2C3CCCC=C3C(C#N)=C(N)C2(C#N)C#N)cc1 (stereo not given)
Plasmodium falciparum [1]
  pEC50: 5.46
Plasmodium falciparum [2]
  pEC50: 5.83
[3]
  CC50: 57700 nM

## Fc1ccc2[nH]c3c(N4CCN(C(c5ccccc5)c5ccccc5)CC4)ncnc3c2c1
Plasmodium falciparum [1]
  pEC50: 6.36
Plasmodium falciparum [2]
  pEC50: 6.42
[3]
  CC50: 14800 nM

## COc1ccc(Nc2cc(C)nc(NCc3ccccc3)n2)cc1
Plasmodium falciparum [1]
  pEC50: 6.82
Plasmodium falciparum [2]
  pEC50: 6.37
[3]
  CC50: 16700 nM

## CCN1CCN(c2nc3ccccn3c(=O)c2/C=C2\SC(=S)N(C(C)C)C2=O)CC1
Plasmodium falciparum [1]
  pEC50: 6.14
Plasmodium falciparum [2]
  pEC50: 6.59
[3]
  CC50: > 10000 nM

## CCC(=O)NC(c1cccc([N+](=O)[O-])c1)c1ccc2cccnc2c1O (stereo not given)
Plasmodium falciparum [1]
  pEC50: 5.47
Plasmodium falciparum [2]
  pEC50: 5.59
[3]
  CC50: > 100000 nM

## COc1ccc(-n2c(SC)nc3sc4c(c3c2=O)CCN(Cc2ccccc2)C4)cc1
Plasmodium falciparum [1]
  pEC50: 5.60
Plasmodium falciparum [2]
  pEC50: 5.59
[3]
  CC50: > 100000 nM

## Cc1cc(C)nc(NC(=N)Nc2cccc(O)c2)n1
Plasmodium falciparum [1]
  pEC50: 5.41
Plasmodium falciparum [2]
  pEC50: 5.58
[3]
  CC50: > 100000 nM

## CN(C)c1ccc(/C=C/C(=O)NC(=O)c2ccccc2OC(=O)c2ccccc2)cc1
Plasmodium falciparum [1]
  pEC50: 6.62
Plasmodium falciparum [2]
  pEC50: 6.58
[3]
  CC50: > 10000 nM

## O=C(Nc1nc(-c2ccccc2)cs1)c1ccccc1O
Plasmodium falciparum [1]
  pEC50: 6.00
Plasmodium falciparum [2]
  pEC50: 6.19
[3]
  CC50: 24300 nM

## COc1cc(-c2nc(-c3ccc(Sc4ccccc4)cc3)c(-c3ccccc3)[nH]2)cc(OC)c1O
Plasmodium falciparum [1]
  pEC50: 5.89
Plasmodium falciparum [2]
  pEC50: 5.79
[3]
  CC50: 64300 nM

## COc1ccc2nc3cc(Cl)ccc3c(NCCN(CCN)CCN)c2c1
Plasmodium falciparum [1]
  pEC50: 6.09
Plasmodium falciparum [2]
  pEC50: 6.60
[3]
  CC50: > 10000 nM

## CCOc1ccc(-c2cn3c(n2)sc2cc(C(=O)NCCN(CC)CC)ccc23)cc1
Plasmodium falciparum [1]
  pEC50: 6.12
Plasmodium falciparum [2]
  pEC50: 5.90
[3]
  CC50: 47500 nM

## OC(COc1ccccc1CNCCN1CCCC1)CN1CCc2ccccc2C1 (stereo not given)
Plasmodium falciparum [1]
  pEC50: 5.66
Plasmodium falciparum [2]
  pEC50: 5.78
[3]
  CC50: 63400 nM

## CCc1ccc(C(=O)Oc2ccccc2-c2nc3ccccn3c2NC(C)(C)CC(C)(C)C)cc1
Plasmodium falciparum [1]
  pEC50: 5.75
Plasmodium falciparum [2]
  pEC50: 6.59
[3]
  CC50: > 10000 nM
